This assay relates to Vero-E6 cells. The experiment in a line: cells. To be noted: Chlorocebus sabaeus, Vero C1008, 24 h, read-out: PL_Result. The assay is classed as cell-based.

SMILES strings stand for the structures.

Consider `CC(C)(Sc1cc(C(C)(C)C)c(O)c(C(C)(C)C)c1)Sc1cc(C(C)(C)C)c(O)c(C(C)(C)C)c1` [SPE_K72029282], for which the activation at 10 µM was -0.8%.

Consider `O=S(=O)(c1cccc2cnccc12)N1CCNCC1` [SPE_K72462751], for which the activation at 10 µM was -15.9%.

In the case of `O=C(Nc1ccc(S(=O)(=O)Nc2ccccc2Cl)c(Cl)c1)c1ccccn1` [SPE_K72687424], the activation at 10 µM was -10.9%.

For `O=C1NC(=O)c2c1c1c3ccccc3[nH]c1c1[nH]c3ccccc3c21` [SPE_K72726508], the activation at 10 µM turned out to be 12.7%.

Regarding `Nc1c[n+](N2CCOCC2)no1` [SPE_K72922393], the activation at 10 µM was -10.9%.

`CC(C)(C)c1ccc(-c2nc3ccccc3[nH]2)cc1` [SPE_K73073971]: the activation at 10 µM was found to be 9.59%.

Turning to `Nc1ccc(C(=O)Oc2ccccc2)c(O)c1` [SPE_K73157543], the activation at 10 µM is -14.5%.

As for `COc1ccc(-c2coc3cc(O)cc(O)c3c2=O)cc1` [SPE_K73303757], the activation at 10 µM is -15.6%.

With `CNC[C@H](O)c1cccc(O)c1` [SPE_K73381542], the activation at 10 µM was determined as 3.82%.

As to `O=C(O)CCCCN(CCc1ccccc1OCc1ccc(CCc2ccccc2)cc1)Cc1ccc(C(=O)O)cc1` [SPE_K73440166], the activation at 10 µM is 2.18%.

For `CCCCOc1nc(N)c2c(n1)N(Cc1cccc(CN3CCCC3)c1)CC(=O)N2` [SPE_K73585091], the activation at 10 µM was -10.5%.

In the case of `CC(=O)NCCc1c[nH]c2ccccc12` [SPE_K73700643], the activation at 10 µM is -6.27%.

With `NCCCCN` [SPE_K75282878], the activation at 10 µM was 0.35%.

In the case of `COc1cc(Nc2nc3ccccc3nc2NS(=O)(=O)c2ccc(NC(=O)c3ccc(C)c(OC)c3)cc2)cc(OC)c1` [SPE_K75308783], the activation at 10 µM was -7.72%.

For the molecule `COc1ccc(-c2sc(NC(=O)C(C)(C)C)nc2C)cc1S(=O)(=O)Nc1ccc(O)cc1` [SPE_K75528696], the activation at 10 µM is 21.7%.

Take `O=C(/C=C/c1ccccc1)NCCO` [SPE_K76021681]: the activation at 10 µM came out at 2.18%.

With `CC(=O)O[C@]1(C(C)=O)CC[C@H]2[C@@H]3CCC4=CC(=O)CCC4=C3[C@@H](c3ccc(N(C)C)cc3)C[C@@]21C` [SPE_K76197012], the activation at 10 µM is -4.74%.

Regarding `Cc1ncc(CO)c(C=O)c1O` [SPE_K76204040], the activation at 10 µM was -1.79%.

For the molecule `NS(=O)(=O)c1ccc(-n2nc(C(F)(F)F)cc2-c2ccc(Cl)cc2)cc1` [SPE_K76365178], the activation at 10 µM was -2.4%.

As to `NC1(Cc2ccc(Cl)cc2)CCN(c2ncnc3[nH]ccc23)CC1` [SPE_K76406695], the activation at 10 µM was -4.38%.

As for `CS(=O)(=O)Nc1ccc([N+](=O)[O-])cc1Oc1ccccc1` [SPE_K76775527], the activation at 10 µM was -12.8%.

As to `CC(=O)Nc1ccc(S(=O)(=O)Nc2ccc([N+](=O)[O-])cc2)cc1` [SPE_K76845197], the activation at 10 µM was -3.76%.

For the molecule `CCOC(=O)c1cc(C#N)c(N2CCC(C(=O)NS(=O)(=O)Cc3ccccc3)CC2)nc1C` [SPE_K77060810], the activation at 10 µM is -0.985%.

On to `N#Cc1ccc(NCCNCC(=O)N2CCC[C@H]2C#N)nc1` [SPE_K77396579], for which the activation at 10 µM was -14.3%.

On to `COc1nc(C)nc(Cl)c1NC1=NCCN1` [SPE_K77771411], for which the activation at 10 µM was -3.03%.

Take `O=S(=O)(c1cccc2c(O)nccc12)N1CCCNCC1` [SPE_K77793136]: the activation at 10 µM was -5.16%.

Take `c1ccc(CCCCN2CCC(c3ccccc3)CC2)cc1` [SPE_K78061844]: the activation at 10 µM came to 42.6%.

As for `O=[N+]([O-])c1cncn1CCN1CCOCC1` [SPE_K79145628], the activation at 10 µM is -10.4%.

Regarding `Cn1cc(C2=C(c3cn(C4CCN(Cc5ccccn5)CC4)c4ccccc34)C(=O)NC2=O)c2ccccc21` [SPE_K79404599], the activation at 10 µM was -2.44%.

For the molecule `O=C1C(Cl)=C(N2CCOCC2)C(=O)N1c1ccc(Cl)c(Cl)c1` [SPE_K79555887], the activation at 10 µM worked out at 5.74%.

On to `O=C(c1ccc(CN2CCOCC2)cc1)N1CCN(C2CC2)CC1` [SPE_K79595931], for which the activation at 10 µM is -2.77%.

Take `Cc1cc(N2CCCCC2)nc2ccccc12` [SPE_K80021413]: the activation at 10 µM is -1.3%.

In the case of `CC(C)(O)CC(=O)NCCn1ccc2ncnc(Nc3ccc(Oc4cccc(C(F)(F)F)c4)c(Cl)c3)c21` [SPE_K80343549], the activation at 10 µM was -7.02%.

Turning to `c1ccc(C(O[C@@H]2CCCN(CCc3ccc4c(c3)OCO4)C2)c2ccccc2)cc1` [SPE_K80451230], the activation at 10 µM stood at 13%.

Take `Cc1cccc(-c2n[nH]cc2-c2ccc3ncccc3n2)n1` [SPE_K80480517]: the activation at 10 µM was 0.32%.

Take `COc1ccc(NS(=O)(=O)c2ccc(I)cc2)cc1N1CCN(C)CC1` [SPE_K80639402]: the activation at 10 µM is 17.6%.

Turning to `CC(C)n1cnc2c(C(=O)N[C@H]3CN4CCC3CC4)cc(Cl)cc21` [SPE_K80725821], the activation at 10 µM was found to be 0.494%.

Regarding `CN1Cc2c(C(=O)OC(C)(C)C)ncn2-c2ccsc2C1=O` [SPE_K80778372], the activation at 10 µM came out at 4.64%.

Regarding `O=C(Nc1ccccc1C(=O)Nc1ccc(CCO)cc1)c1ccc([N+](=O)[O-])cc1` [SPE_K81053848], the activation at 10 µM is -6.64%.

On to `CC(C)[C@]12O[C@H]1[C@@H]1O[C@]13[C@]1(O[C@H]1C[C@H]1C4=C(CC[C@@]13C)C(=O)OC4)[C@@H]2O` [SPE_K81258678], for which the activation at 10 µM was -5.53%.

For the molecule `N#CC(c1ccccc1)(c1ccccc1)c1ccccc1Cl` [SPE_K81341251], the activation at 10 µM amounted to 4.81%.

For `O=C(O)c1ccc2c(c1)nc(Nc1cccc(Cl)c1)c1ccncc12` [SPE_K81458380], the activation at 10 µM was 1.48%.

Regarding `CC(=O)OCC(=O)NCCCOc1cccc(CN2CCCCC2)c1` [SPE_K81855038], the activation at 10 µM is -10.7%.

With `C=CC(=O)Nc1cc(Nc2nccc(-c3c[nH]c4ccccc34)n2)c(OC)cc1N(C)CCN(C)C` [SPE_K81958169], the activation at 10 µM was determined as 5.71%.

Consider `Nc1nc(=O)[nH]cc1F` [SPE_K82143716], for which the activation at 10 µM was -8.79%.

Consider `CN(CCCN1c2ccccc2CCc2ccccc21)CC(=O)c1ccc(Cl)cc1` [SPE_K82147103], for which the activation at 10 µM is -0.728%.

On to `CC(=O)Nc1ccc(OC[C@](C)(O)C(=O)Nc2ccc([N+](=O)[O-])c(C(F)(F)F)c2)cc1` [SPE_K82164249], for which the activation at 10 µM was -13.9%.

As for `O=[N+]([O-])O[C@@H]1CO[C@H]2[C@@H]1OC[C@@H]2O` [SPE_K82225283], the activation at 10 µM is -18.1%.

For the molecule `Cc1cc(C(N)=O)ccc1-n1c(CCC(=O)O)ccc1-c1ccc(-n2ccnc2)cc1` [SPE_K82522873], the activation at 10 µM is -2.92%.

With `CNC(=O)[C@H](Cc1ccccc1)NC(=O)[C@H](CC(C)C)[C@H](CSc1cccs1)C(=O)NO` [SPE_K82818427], the activation at 10 µM turned out to be 11.4%.

For the molecule `C[C@@H](C1=C(CCN(C)C)Cc2ccccc21)c1ccccn1` [SPE_K83192048], the activation at 10 µM was determined as 11.3%.

For the molecule `C#CCN(C)Cc1ccccc1` [SPE_K83597974], the activation at 10 µM was -2.77%.

Turning to `C[C@@]12C[C@@]3(O)O[C@@H](O1)[C@]1(COC(=O)c4ccccc4)[C@H]3C[C@@]12O[C@@H]1O[C@H](CO)[C@@H](O)[C@H](O)[C@H]1O` [SPE_K83631119], the activation at 10 µM is 4.42%.

Take `COc1ccn2ncc(-c3nc4[nH]nc(NC(=O)c5ccc(F)cc5)c4cc3F)c2c1` [SPE_K84068331]: the activation at 10 µM was -16.5%.

For the molecule `O=C(NCc1ccc(Oc2ccccc2)cc1)c1nc(-c2cc(Br)c(O)c(Br)c2)no1` [SPE_K84892605], the activation at 10 µM is -10.4%.

As for `Cc1cc(OCC(=O)O)cc(C)c1Cc1ccc(O)c(C(C)C)c1` [SPE_K85406984], the activation at 10 µM was -18.6%.

In the case of `O=C(O)c1cc(O)c2ccccc2n1` [SPE_K85872723], the activation at 10 µM was -13%.

Regarding `Nc1ccn([C@H]2CC[C@@H](CO)O2)c(=O)n1` [SPE_K85925969], the activation at 10 µM amounted to 2.75%.

`CCS(=O)(=O)N1CCC[C@@H]2CN3CCc4cc(OC)ccc4[C@@H]3C[C@@H]21` [SPE_K86600316]: the activation at 10 µM is -8.68%.

Consider `O=C(NCC(=O)N1CCCC1)Nc1ccc2cnccc2c1` [SPE_K86718786], for which the activation at 10 µM is -0.0855%.

In the case of `C=CCN1C[C@H](C(=O)N(CCCN(C)C)C(=O)NCC)C[C@@H]2c3cccc4[nH]cc(c34)C[C@H]21` [SPE_K86882815], the activation at 10 µM was found to be 9.44%.

Turning to `C=C[C@@H]1C[C@]1(NC(=O)[C@@H]1C[C@@H](Oc2ncc(OC)c3ccc(Cl)cc23)CN1C(=O)[C@@H](NC(=O)OC(C)(C)C)C(C)(C)C)C(=O)NS(=O)(=O)C1CC1` [SPE_K87028197], the activation at 10 µM is -0.0254%.

With `CCOC(=O)n1ccn(C)c1=S` [SPE_K87156652], the activation at 10 µM was -10.8%.

As for `NNC(=O)c1ccncc1` [SPE_K87202646], the activation at 10 µM stood at 0.348%.

As to `COc1cnc(NS(=O)(=O)c2ccc(N)cc2)nc1` [SPE_K87492696], the activation at 10 µM is -0.356%.

Turning to `O=C(Nc1ccc(S(=O)(=O)C(F)(F)F)cc1)C1=CCN(c2ncccc2C(F)(F)F)CC1` [SPE_K87665527], the activation at 10 µM was 1.59%.

Take `COc1ccc(Nc2ncnc3ccc(OC)cc23)cc1` [SPE_K87696786]: the activation at 10 µM was -2.62%.

In the case of `COc1ccc(CNC(=O)c2sc3nc(C)cc(C)c3c2N)cc1` [SPE_K87727457], the activation at 10 µM was -11.5%.

For the molecule `N#CCNC(=O)c1ccc(-c2ccnc(Nc3ccc(N4CCOCC4)cc3)n2)cc1` [SPE_K87737963], the activation at 10 µM amounted to 7.32%.

Turning to `Nc1nnc2[nH]c3ccccc3nc1-2` [SPE_K87932577], the activation at 10 µM was -2.99%.

With `NS(=O)(=O)c1cc(C(=O)O)cc(N2CCCC2)c1Oc1ccccc1` [SPE_K87990216], the activation at 10 µM was 0.629%.

Take `Nc1ncnc2c1c(-c1ccc(Cl)cc1)nn2-c1cccc(-c2cnnn2Cc2cccc(-c3ccccc3)c2)c1` [SPE_K88154110]: the activation at 10 µM was -7.24%.

In the case of `COc1cc(OC)c(OC)cc1C=O` [SPE_K88219015], the activation at 10 µM was -0.692%.

For `COC(=O)C1=CCCN(C)C1` [SPE_K88646909], the activation at 10 µM came out at 3.55%.

Take `O=C(NC[C@H](O)CO)c1ccncc1Nc1ccc(I)cc1F` [SPE_K89014967]: the activation at 10 µM is -12.6%.

As for `O=C1c2ccccc2C(Cc2ccnc(F)c2)(Cc2ccnc(F)c2)c2ccccc21` [SPE_K89274813], the activation at 10 µM is -6.43%.

For the origin of these results see PMC13083723 (Patterns, 2026).
